The record followed here is patent US20030148404A1, “Peptides and substances, methods and devices using same for diagnosing and treating neurodegenerative disorders” (Ramot University Authority For Applied Research & …, priority 2000, published 2003).

Non-standard residues stand in square brackets, D forms with d. No end group written: not given here. pS = N[C@@H](COP(=O)(O)O)C(=O)O

Assay [1] relates to anti-NF—H antibodies. Briefly: Streptavidin-biotin ELISA: serum IgG binding to biotinylated NF-H peptide (protocol optimisation, pooled AD serum). Also on record: species or system human. The settings on record: serum pooled from 10 AD patients; streptavidin plates blocked or not blocked; FIG. 1. Here is the method:
Solutions and Materials: Tris Buffered Saline (TBS): 50 mM Tris-HCl, pH 7.4 (Tris (Sigma, T-1378); HCl (Merck 1.00319.1000)) 200 mM NaCl (Merck, 1.06404.1000). TBST: 0.05% (w/v) Tween-20 (Sigma, P-7949) in TBS. Phosphate Buffered Saline (PBS): 0.1 M phosphate buffer, pH 7.2 (Sodium phosphate, monobasic (Sigma. S-8182) and Sodium phosphate, dibasic (Sigma, S-7907)). 200 mM NaCl (Merck, 1.06404.1000). PBST: 0.05% (w/v) Tween-20 (Sigma, P-7949) in PBS. Dilution/Blocking buffer: 0.5% Gelatin (Difco, 0143-17-9) in TBST. Streptavidin stock solution: 2 mg/ml Streptavidin (Sigma, S4762) in purified water. Aliquoted and kept at −20° C., this solution is stable indefinitely. Multiwell Plates: Nunc Maxisorp (Cat. No. 442404) 96 well C-shaped microplates. Secondary antibody: Goat anti-human IgG Horse radish peroxidase conjugate (Jackson, 109-035-088). Substrate solution: 1 mg/ml OPD (Sigma, P-8412)+0.005% H2O2 (Merck, 1.07210.0250) in […] Sodium Citrate buffer, pH 5 (Merck, 1.00 244.1000).
A Streptavidin stock solution (2 mg/ml Streptavidin prepared in purified water, aliquoted, and stored at −20° C.) was diluted 1:400 in ddH2O and a 100 μl aliquot was added to each well of a multiwell plate (96 well C-shaped microplates). […]
OD was measured at 450 nm and 620 nm every minute over a period of 10-15 minutes. […]
On the technique in general: In an ELISA, binding on a coated surface is turned into a signal by an enzyme label.

The subject of assay [2] is anti-NF—H antibodies. The assay is described as follows: ELISA comparison of AD and NC sera with peptides; separation algorithms and grouping of peptides into FACTs. The note with it: single peptide. In kind it is binding, human. Here is the method: A Streptavidin stock solution (2 mg/ml Streptavidin prepared in purified water, aliquoted, and stored at −20° C.) was diluted 1:400 in ddH2O and a 100 μl aliquot was added to each well of a multiwell plate (96 well C-shaped microplates). The plates were incubated at 37° C. overnight until the liquid was entirely evaporated and stored until use at 4° C. in plastic bags containing a desiccating material. Such coated plates retained their activity for at least few days. The plates were washed 4 times by immersing in TBST. 200 μl of blocking solution were added to each of the wells. The plates were then incubated for 1 hour at room temperature. 100 μl of the biotinylated peptide (1 μg/ml in TBST) were added to each of the wells with the exception of the control wells. The plates were then incubated for 1 hour at room temperature.
Following incubation, the plates were washed in TBST 4 times as above. A 100 μl aliquot of serum which was diluted in a dilution buffer was added to each well and the plates were incubated for 1 hour at room temperature.
Following this incubation the wells were washed in TBST 4 times as above. A 100 μl aliquot of a secondary antibody (Goat anti-human IgG Horse radish peroxidase conjugate) which was diluted 1:2000 in dilution buffer was added to each well and the plates were incubated for 1 hour at room temperature.
The wells were then washed in TBST 4 times as above followed by two washes in TBS (TBST w/o Tween-20).
A 100 μl aliquot of the substrate solution was added to each well and the plates were incubated at room temperature.
OD was measured at 450 nm and 620 nm every minute over a period of 10-15 minutes.
Employing the above optimized parameters, eight AD and eight NC sera were analyzed using peptide 3M (SEQ ID NO:31). The experiment was repeated over a period of four days, employing four different plates each day. Two plates were preblocked with Gelatin, while two were not. In one experiment chloroform treated serum was analyzed on two additional plates. Three AD sera consistently gave rise to high signals in all experiments. One AD serum caused high signals in 10 out of the 13 plates and four AD sera were consistently negative. One NC sera caused high signals in some of the plates in the experiments conducted on all four days. Two additional NC sera gave rise to high signals in some of the plates in the experiments conducted on three of the four days. […] The reproducibility of the experiments was assessed by averaging the rank-order numbers of each sample in every experiment (Table 3). […]
A series of experiments were performed in which 48 AD and 48 NC were analyzed by the use of 17 different peptides (INO; 2L; 2LR; 3NO; 3L; 3M; 3R; 3LM; 3LR; 4LM; 4MR; 4LMR; 5LM; 6LR; 7MR; 8LMR and 8LMR-V). […]

Take “A K S P A E A K S(PO3H) P V K E E A K S P-OH (AKSPAEAK[pS]PVKEEAKSP-OH; N-terminus assumed; SMILES CC(C)[C@H](NC(=O)[C@@H]1CCCN1C(=O)[C@H](COP(=O)(O)O)NC(=O)[C@H](CCCCN)NC(=O)[C@H](C)NC(=O)[C@H](CCC(=O)O)NC(=O)[C@H](C)NC(=O)[C@@H]1CCCN1C(=O)[C@H](CO)NC(=O)[C@H](CCCCN)NC(=O)[C@H](C)N)C(=O)N[C@@H](CCCCN)C(=O)N[C@@H](CCC(=O)O)C(=O)N[C@@H](CCC(=O)O)C(=O)N[C@@H](C)C(=O)N[C@@H](CCCCN)C(=O)N[C@@H](CO)C(=O)N1CCC[C@H]1C(=O)O) [3M]”: in the assay on anti-NF—H antibodies [1], the “saturating concentration of the peptide” value is 0.4 to 0.8 µg/mL. Also, in the assay on anti-NF—H antibodies [2] (eight AD and eight NC samples), the sensitivity was 50% and the specificity came out at 87%. In addition, the AD cases detected entry in the assay with anti-NF—H antibodies [2] (eight AD and eight NC sera, pre-blocked plates) was “four out of eight”. In the assay on anti-NF—H antibodies [2] (eight AD and eight NC sera, pre-blocked plates (sample No. 485)), the false positive signal result was “one”.
